The subject of series [1] is Hepatitis B virus. Put plainly: Antiviral activity against wild type Hepatitis B virus infected in human HuH7 cells. In kind it is functional, organism-based. To be noted: Huh-7.
Series [2] is described as follows: Cytotoxicity against human HuH7 cells. In kind it is cell-based, Huh-7.
Series [3] has as its system Hepatitis B virus. As to the kind of experiment: Antiviral activity against entecavir-resistant Hepatitis B virus harboring L180M/M204V/S202G triple mutant infected in human HuH7 cells. The note with it: Huh-7. Format: functional, organism-based.
The subject of series [4] is HepG2. As to the kind of experiment: Mitochondrial toxicity in human HepG2 cells assessed as lactate dehydrogenase release up to 100 uM. In kind it is cell-based.
Series [5] concerns HepG2. Put plainly: Mitochondrial toxicity in human HepG2 cells assessed as lactate dehydrogenase release up to 200 uM. In kind it is cell-based.
For series [6], the system named is Hepatitis B virus. As to the kind of experiment: Selectivity ratio of EC50 for entecavir-resistant Hepatitis B virus harboring L180M/M204V/S202G triple mutant to EC50 for wild type Hepatitis B virus. Format: functional.

Regarding `C=C1[C@@H](n2cnc3c(N)ncnc32)[C@H](F)[C@H](O)[C@H]1CO`, the EC50 with Hepatitis B virus [1] was determined as 0.548 µM; in the series with Hepatitis B virus [3] it was 0.67 µM. Further, it took 6 µM to reach the 90% level in the series with Hepatitis B virus [1] (EC90). In series [2], this molecule showed a CC50 of more than 300 µM. For the same molecule, in the series with HepG2 [4], the Activity result was “Non-toxic”.
As for `Nc1ccn([C@@H]2CS[C@H](CO)O2)c(=O)n1` [LAMIVUDINE], the Activity entry in the series on HepG2 [5] is given as “Non-toxic”. In the series with Hepatitis B virus [1], this molecule came in with an EC50 of 0.056 µM and a 90% effect concentration (EC90) of 0.142 µM. For the same molecule, the CC50 in series [2] was more than 300 µM. The molecule further gave an EC50 in the series on Hepatitis B virus [3] of more than 500 µM.
On to `C=C1[C@H](CO)[C@@H](O)C[C@@H]1n1cnc2c(=O)[nH]c(N)nc21.O` [ENTECAVIR], for which the “Ratio EC50” value in the series with Hepatitis B virus [6] worked out at 150. Moreover, in the series on Hepatitis B virus [1], the EC50 stood at 0.008 µM and it took 0.033 µM to reach the 90% level (EC90). In series [2], this molecule showed a CC50 of 28 µM. Also, in the series on Hepatitis B virus [3], the EC50 amounted to 1.2 µM.
With `Cc1cn([C@H]2C[C@H](N=[N+]=[N-])[C@@H](CO)O2)c(=O)[nH]c1=O` [ZIDOVUDINE], the Activity entry with HepG2 [5] is recorded as “Toxic”.
For the molecule `C=C1[C@@H](n2cnc3c(N)ncnc32)[C@H](F)[C@H](O)[C@H]1COP(=O)(N[C@@H](C)C(=O)OC)Oc1ccccc1` (stereo not given in full), the EC50 in the series on Hepatitis B virus [1] came to 0.062 µM; in the series with Hepatitis B virus [3] it was 0.054 µM. In addition, the EC90 with Hepatitis B virus [1] was determined as 0.46 µM. This molecule registered a CC50 in series [2] of more than 300 µM.

What is called EC50 is the midpoint of the concentration-response curve. A high value points to lower potency in that assay. In general, EC90 refers to the point of the concentration-response curve where the effect stands at 90%. A lower EC90 goes with greater potency. For orientation: CC50 means the concentration at which the toxic effect on the cells reaches its halfway point.

These data come from ChEMBL document CHEMBL2321711, “2'-Fluoro-6'-methylene-carbocyclic adenosine phosphoramidate (FMCAP) prodrug: in vitro anti-HBV activity against the lamivudine-entecavir resistant triple mutant and its mechanism of action” (Bioorg Med Chem Lett, 2013).
